These are literature values, as cited in patent US20200345666A1, “HERBAL MEDICINAL TABLET FORMULATION FOR TREATING OBESITY WHICH CAN BE […] ON SASANG CONS[…]” (NUBEBE CO., LTD., priority 2017, published 2020).

The structures appear in SMILES notation.

The conditions of the series: taken for 20 weeks or more; Journal of Korean Medicine 2017.

`CN[C@@H](C)[C@H](O)c1ccccc1` [ephedrine]: the “weight and body fat loss compared to control group” value is “showed weight and body fat loss”.
